Several values for one entry are separate records, joined by “and”; a condition that tells them apart may be missing. Equal values may be shown once.
Tests used:
Type in all cases: cell-based, mouse
[1] = system: LPS-activated BV-2 cells; test: RT-qPCR for TNF-α mRNA expression in LPS-activated BV-2 cells; conditions: 10 µM, 1 µg/mL LPS 24 h
Protocol: (§1) BV-2 cells were cultured in DMEM/F-12 media supplemented with 10% (v/v) FBS and 1% (v/v) penicillin/streptomycin, and kept at 37 °C in a humidified incubator ([…], 5% CO2) for all studies. Cells with 80% confluency were used for experiments. At 24 h post-seeding, BV-2 cells were treated with either of the MFP compounds (at concentrations detailed below) or vehicle (0.1% (v/v) DMSO) and 1 µg/mL LPS for a period of 24 h. In some experiments (detailed in Results), BV-2 cells were exposed to MFP compounds for 2 h before a 24 h exposure to LPS and MFP compounds, and in some studies, in the presence of FABP4 siRNA using a 24 h treatment that we have previously employed (Low et al. [2021]). […]
RT-qPCR was performed to determine the amount of TNF-α mRNA following the required cell treatments, as previously described (Low et al. [2020]). […] The concentration and purity of the isolated RNA was assessed using a Thermo Fisher Nanodrop 1000 spectrophotometer (Rockford, IL). […] The threshold cycles (Ct) were automatically calculated using the CFX manager software. […]

[2] = system: LPS-activated BV-2 cells; test: Intracellular ROS (DCF-DA) in LPS-activated BV-2 cells
Protocol: BV-2 cells were cultured in DMEM/F-12 media supplemented with 10% (v/v) FBS and 1% (v/v) penicillin/streptomycin, and kept at 37 °C in a humidified incubator ([…], 5% CO2) for all studies. Cells with 80% confluency were used for experiments. […] In some experiments (detailed in Results), BV-2 cells were exposed to MFP compounds for 2 h before a 24 h exposure to LPS and MFP compounds, and in some studies, in the presence of FABP4 siRNA using a 24 h treatment that we have previously employed (Low et al. [2021]). In brief, BV-2 cells were washed once 4 h post-seeding with blank DMEM/F-12 media. siRNA complexes (containing FABP4 siRNA, target sequence 5’-[…]-3’ or AllStar Negative Control siRNA, target sequence proprietary) were added dropwise onto the cells. siRNA complexes were prepared by mixing siRNA and HiPerfect transfection reagent together in FBS-free DMEM/F12 media and incubating for 15 min to allow the siRNA complexes to form. The cells were incubated with the siRNA complex for 5 min, after which, DMEM/F12 media containing FBS was added into each well to dilute the siRNA complexes to 5 nM.
Intracellular ROS in BV-2 cells, following treatment with MFP compounds and LPS, was detected using the widely-used membrane permeable probe, DCF-DA. Post treatment, BV-2 cells were rinsed once with warm HBSS prior to being incubated with 40 µM of DCF-DA for 30 min at 37°C, 5% CO2. The wells were then rinsed again with HBSS before being read on a Perkin-Elmer Enspire plate reader (λex: 488 nm, λem: 535 nm) as we have reported previously (Kagawa et al. [2023]).

[3] = system: LPS-activated BV-2 cells; test: TNF-α ELISA of supernatant of LPS-activated BV-2 cells
Protocol: as §1
ELISA was performed as per manufacturer’s protocol to measure the concentration of TNF-α in the supernatant in which BV-2 cells were treated. […] 100 µL of Stop solution was added into each well before the plate was immediately read on a Perkin-Elmer Enspire fluorescence plate reader at 450 nm […] and 570 nm (absorbance). Absorbance values at 570 nm were subtracted from 450 nm to account for background. TNF-α concentration was normalised to total protein count (mg), as quantified by a BCA assay, and reported as pg/mg protein.

[4] = system: LPS-activated BV-2 cells; test: Extracellular nitrite (Griess assay) from LPS-activated BV-2 cells; conditions: 50 µM, 1 µg/mL LPS 24 h
Protocol: as §1
For measurement of extracellular nitrite concentrations, the Griess assay was performed as per the manufacturer’s protocol (Molecular Probes, Eugene, OR) with minor changes. […] The absorbance of the media samples was measured on a Perkin-Elmer Enspire plate reader at 548 nm, with nitrite concentrations in media samples obtained by back calculating sample absorbance values back to a standard curve prepared through serial dilution of NaNO2 prepared in media.

[5] = BV-2 cells pre-treated with LPS for 4 h, then 10 µM compound

## O=C(O)c1cccc(NS(=O)(=O)c2ccc(Cl)c(Cl)c2)c1 [MFP-0012328]
[1]
  reduction of TNF-α mRNA levels relative to LPS alone: 17%
[2]; 5 nM FABP4 siRNA, 10 µM MFP-0012328, or both, with 1 µg/mL LPS 24 h, range over the three treatments
  reduction of ROS production vs LPS-treated BV-2 cells: 36.6–61.2%
[2]; 10 µM plus 5 nM FABP4 siRNA, 1 µg/mL LPS 24 h
  further reduction of ROS levels in FABP4 siRNA treated cells: not able to reduce ROS levels any further
[2]; [5]
  reduction of ROS production vs LPS-alone: 27.8%
[3]; 10 µM, 1 µg/mL LPS 24 h
  reduction in extracellular concentration of TNF-α relative to LPS-only: 25% and 24.8%
[3]; [5]
  reduction of TNF-α release vs LPS-alone: 15.7%
[4]
  attenuation of LPS-mediated release of nitrite: 51.3%

— paper PMC12000251, “Evaluation of the Anti-Inflammatory Effects of Novel Fatty Acid-Binding Protein 4 Inhibitors in Microglia” (Journal of Neuroimmune Pharmacology, 2025)
